Results: patent US12011449B2, “Therapeutic combinations comprising a c-RAF inhibitor” (Novartis AG, priority 2016, dated 2024)
pIC50: −log10 of the molar value. Where two headings read alike, the source gives them in different places.

Legend:
A375 [1] = assay: Proliferation, CellTiter-Glo 72 h, A375; type: cell-based; conditions: Homo sapiens, A-375, A375, Melanoma, BRAF V600E, RAS WT
Description: (§1) Note that activity is especially strong on cell lines that harbor at least one mutation in BRAF or RAS.

WM2664 = assay: Proliferation, CellTiter-Glo 72 h, WM2664; type: cell-based; conditions: Homo sapiens, WM 266-4, WM2664, Melanoma, BRAF V600D, RAS WT
Description: as §1

IPC298 = assay: Proliferation, CellTiter-Glo 72 h, IPC298; type: cell-based; conditions: Homo sapiens, IPC-298, IPC298, Melanoma, BRAF WT, NRAS Q61L
Description: as §1

HeyA8 = assay: Proliferation, CellTiter-Glo 72 h, HeyA8; type: cell-based; conditions: Homo sapiens, HEY A8, HeyA8, Ovarian, BRAF G464E, KRAS G12D
Description: as §1

HCT116 = assay: Proliferation, CellTiter-Glo 72 h, HCT116; type: cell-based; conditions: Homo sapiens, HCT-116, HCT116, Colorectal, BRAF WT, KRAS G13D
Description: as §1

Calu-6 = assay: Proliferation, CellTiter-Glo 72 h, Calu-6; type: cell-based; conditions: Homo sapiens, Calu-6, NSCLC, BRAF WT, KRAS Q61K
Description: as §1

HuP-T4 = assay: Proliferation, CellTiter-Glo 72 h, HuP-T4; type: cell-based; conditions: Homo sapiens, HuP-T4, Pancreas, BRAF WT, KRAS G12V
Description: as §1

PSN1 = assay: Proliferation, CellTiter-Glo 72 h, PSN1; type: cell-based; conditions: Homo sapiens, PSN1, Pancreas, BRAF WT, KRAS G12R
Description: as §1

TCC-PAN2 = assay: Proliferation, CellTiter-Glo 72 h, TCC-PAN2; type: cell-based; conditions: Homo sapiens, TCC-PAN2, Pancreas, BRAF WT, KRAS G12R
Description: as §1

NCI-H2073 = assay: Proliferation, CellTiter-Glo 72 h, NCI-H2073; type: cell-based; conditions: Homo sapiens, NCI-H2073, NSCLC, BRAF WT, RAS WT
Description: as §1

HCC827 = assay: Proliferation, CellTiter-Glo 72 h, HCC827; type: cell-based; conditions: Homo sapiens, HCC827, NSCLC, BRAF WT, RAS WT
Description: as §1

PC3 = assay: Proliferation, CellTiter-Glo 72 h, PC3; type: cell-based; conditions: Homo sapiens, PC-3, PC3, Prostate, BRAF WT, RAS WT
Description: as §1

A375 [2] = assay: Anti-proliferative effect in mechanistic A375 models, parental A375; type: cell-based; conditions: Homo sapiens, A-375, 72 hours, CellTiter-Glo
Method: (§2) To investigate the activity of Compound A in BRAF V600 mutant melanoma cells refractory to BRAF and/or MEK inhibitors, the anti-proliferative activity of Compound A in the mechanistic models derived from the BRAF V600 melanoma cell line A375 expressing mutations of MEK1/2, NRAS, or a splice variant of BRAF was evaluated.

A375/BRAFp61-V600E = assay: Anti-proliferative effect in mechanistic A375 models, A375/BRAFp61-V600E; type: cell-based; conditions: Homo sapiens, A-375, doxycycline-induced, 72 hours
Method: as §2

A375/MEK1 Q56P = assay: Anti-proliferative effect in mechanistic A375 models, A375/MEK1 Q56P; type: cell-based; conditions: Homo sapiens, A-375, doxycycline-induced, 72 hours
Method: as §2

A375/MEK1 C121S = assay: Anti-proliferative effect in mechanistic A375 models, A375/MEK1 C121S; type: cell-based; conditions: Homo sapiens, A-375, doxycycline-induced, 72 hours
Method: as §2

A375/MEK1 E203K = assay: Anti-proliferative effect in mechanistic A375 models, A375/MEK1 E203K; type: cell-based; conditions: Homo sapiens, A-375, doxycycline-induced, 72 hours
Method: as §2

A375/MEK2 Q60P = assay: Anti-proliferative effect in mechanistic A375 models, A375/MEK2 Q60P; type: cell-based; conditions: Homo sapiens, A-375, doxycycline-induced, 72 hours
Method: as §2

A375/NRAS Q61K = assay: Anti-proliferative effect in mechanistic A375 models, A375/NRAS Q61K; type: cell-based; conditions: Homo sapiens, A-375, doxycycline-induced, 72 hours
Method: as §2

[3] = system: A375 derivatives expressing mutations of MEK1/2, NRAS, or a splice variant of BRAF; assay: IC50 shift of resistant A375 models versus parental A375; type: cell-based, human
Method: as §2

[4] = Clinical PK of Compound A tablets, once daily, fasted subjects; type: in vivo, human; conditions: plasma; for AUC: day 1 of dosing, read-out: Mean plasma exposure over the dose interval of 24 hours (AUCtau); for Cmax: oral tablets, fasted subjects, read-out: Maximum plasma concentration (Cmax)
Method: Compound A was formulated with hydroxypropylmethylcellulose/Hypromellose, colloidal silicon dioxide, microcrystalline cellulose, polyvinylpyrrolidone/Povidone and magnesium stearate, and formed into tablets containing about 50 mg of Compound A. A number of tablets sufficient to provide a desired dosage were administered once daily to fasted subjects. Subjects were treated at doses of 100 mg once per day, or 200 mg once per day. Serial blood samples for PK assessments were collected up to 48 hours after the first dose of Compound A (Cycle 1 Day 1), and up to 24 hours after multiple doses (Cycle 1 Day 15). […] Mean plasma exposure over the dose interval of 24 hours (AUCtau) on day 1 of dosing was 5679 hr·ng/ml and 10019 hr·ng/ml after the 100 mg and 200 mg doses of Compound A, respectively. […] As this study is on-going, all data presented are considered preliminary.

[5] = system: Calu-6 (KRAS Q61K), HCT116 (KRAS G13D); assay: Cell-based proliferation, Calu-6 and HCT116; conditions: Homo sapiens
[6] = system: Calu-6 (KRAS Q61K) xenograft; assay: Calu-6 xenograft in nude mice; type: in vivo
Method: (§3) Female nude tumor bearing Calu6 mice, n=6 per group were randomized into treatment groups on day 17 following tumor implantation, when the average tumor volume was 180 mm3. Treatments with compound A were initiated on Day 17 and continued for 16 days. Dosing volume was 10 mL/kg. Tumor volumes were collected at the time of randomization and twice weekly thereafter for the study duration.
(§4) Regressions were also achieved in a second human NSCLC model, NCI-H358, at the 200 mg/kg QD dose in mice and in the human ovarian Hey-A8 xenograft at doses as low as 30 mg/kg QD in mice.

[7] = system: Calu-6 (KRAS Q61K) xenograft; assay: Calu-6 xenograft in nude rats; type: in vivo
[8] = system: NCI-H358 (KRAS G12C) xenograft; assay: NCI-H358 xenograft in mice; type: in vivo; conditions: 200 mg/kg QD
Method: (§5) SCID beige female tumor-bearing NCI-H358 mice, n=8 per group, were randomized into 3 groups 14 days post tumor cell inoculation with an average tumor volume range of 259.44-262.47 mm^3.
as §4

[9] = system: human ovarian Hey-A8 xenograft; assay: Hey-A8 ovarian xenograft in mice; type: in vivo; conditions: doses as low as 30 mg/kg QD
Method: as §4

KRASmt NSCLC models = assay: Human KRAS-mutant xenograft models, overall statements; type: in vivo
Method: as §5, §3
Nude female mice tumor bearing NCI-H358, n=8 per group, were randomized into 2 groups with an average tumor volume range of 275.74 mm3.

[10] = system: Calu-6 human NSCLC xenograft; assay: Calu-6 NSCLC subcutaneous xenograft, single agents and combination; type: in vivo; conditions: for durability of tumor response: under treatment, 42 days post dosing
Method: Calu-6 NSCLC tumors were established in athymic female mice by subcutaneous injection of 10 million cells in 50% Matrigel™ into the flank of each mouse. […] A-B) Tumor volumes of treatment groups vs. days post randomization. C) Mean percent change in body weight from initial.
Combined treatment with Compound A and Compound B led to increased depth and durability of tumor response compared to either single agent in the human NSCLC xenograft Calu-6. […] Combining Compound A dosed at 30 mg/kg qd with Compound B dosed at either 50 mg/kg qd or 75 mg/kg q2d achieved 66% and 51% regressions, respectively, 17 days post dosing. In addition to the increased depth of response, the combination of Compound A and Compound B also led to an increased durability of response.

[11] = system: DUSP6 (dual specificity phosphatase 6); assay: DUSP6 pharmacodynamic biomarker in vivo; conditions: subject receiving a dosage associated with efficacious plasma levels
Description: In addition, an efficacious dosage can be determined by monitoring biomarkers indicative of MAP kinase pathway inhibition.

[12] = system: non-small cell lung cancer (NSCLC); assay: Phase I dose finding study, tumor response (RECIST); type: in vivo, human; conditions: one NSCLC subject, 1200 mg QD, preliminary
Method: The recommended starting dose and regimen of Compound A single agent in this study is 100 mg QD orally based on the preclinical safety, tolerability data, PK/PD data obtained in preclinical studies, as well as exploratory human efficacious dose range projection. […] For maximum flexibility of dosing, Compound A may be prepared as 50 mg and/or 100 mg tablets for oral administration. A proposed formulation for clinical use of Compound A includes Compound A combined with one or more excipients selected from hydroxypropylmethylcellulose (Hypromellose), colloidal silicon dioxide, microcrystalline cellulose, polyvinylpyrrolidone (Povidone), and magnesium stearate, and can be prepared in the form of tablets for oral administration, suitably containing 50 mg or 100 mg of Compound A. This was further confirmed by preliminary results obtained from the clinical trial.

Calu6 (KRAS^Q61K) = assay: 3 day proliferation assay, Calu6; type: cell-based; conditions: Homo sapiens, Calu-6, 72 h, read-out: IC50 cell growth
HeyA8 (KRAS^G12D) = assay: 3 day proliferation assay, HeyA8; type: cell-based; conditions: Homo sapiens, HEY A8, 72 h, read-out: IC50 cell growth
AsPC-1 (KRAS^G12D) = assay: 3 day proliferation assay, AsPC-1; type: cell-based; conditions: Homo sapiens, ASPC1, 72 h, read-out: IC50 cell growth
PSN1 (KRAS^G12R) = assay: 3 day proliferation assay, PSN1; type: cell-based; conditions: Homo sapiens, 72 h, read-out: IC50 cell growth

Structure (SMILES): Cc1ccc(NC(=O)c2ccnc(C(F)(F)F)c2)cc1-c1cc(OCCO)nc(N2CCOCC2)c1 [Compound A, N-(3-(2-(2-hydroxyethoxy)-6-morpholinopyridin-4-yl)-4-methylphenyl)-2-(trifluoromethyl)isonicotinamide]
- pIC50 (A375 [1]): 6.62
- pIC50 (WM2664): 6.35
- pIC50 (IPC298): 6.60
- pIC50 (HeyA8): 6.68
- pIC50 (HCT116): 6.33
- pIC50 (Calu-6): 5.82
- pIC50 (HuP-T4): 6.19
- pIC50 (PSN1): 6.17
- pIC50 (TCC-PAN2): 6.38
- pIC50 (NCI-H2073): 4.74
- pIC50 (HCC827): < 4.70
- pIC50 (PC3): < 4.70
- pIC50 (A375 [2]): 6.38
- pIC50 (A375/BRAFp61-V600E): 6.14
- pIC50 (A375/MEK1 Q56P): 5.94
- pIC50 (A375/MEK1 C121S): 5.94
- pIC50 (A375/MEK1 E203K): 5.98
- pIC50 (A375/MEK2 Q60P): 5.95
- pIC50 (A375/NRAS Q61K): 6.02
- increase in IC50 in resistant models [3]: 2-3 fold
- AUC ([4]; human, oral, 100 mg): 5.68 µg·h/mL
- AUC ([4]; human, oral, 200 mg): 10 µg·h/mL
- half-life ([4]; human, oral, in patients): 23 to 24 h
- Cmax ([4]; human, single 100 mg dose): 0.447 µg/mL
- Cmax ([4]; human, single 200 mg dose): 0.889 µg/mL
- accumulation ratio ([4]; once daily dosing of 100 mg): 1.8
- pIC50 [5]: 5.92 to 6.70
- anti-tumor effect ([6]; mice, 30 mg/kg QD): Tumor stasis
- anti-tumor effect ([6]; nude mice, 100, 200, and 300 mg/kg once daily (QD)): regressions
- anti-tumor effect ([7]; nude rats, 75 and 150 mg/kg QD): regressions
- anti-tumor effect ([7]; rats, 35 mg/kg QD): Tumor stasis
- anti-tumor effect [8]: Regressions
- anti-tumor effect [9]: Regressions
- single agent anti-tumor activity (KRASmt NSCLC models; H358, Calu6, H727 models, oral daily): showed single agent activity
- tolerability (body weight loss) (KRASmt NSCLC models; in all cases (KRAS-mutant xenograft models)): well tolerated as judged by lack of significant body weight loss
- T/C ([10]; Compound A 30 mg/kg qd, oral, 17 days post dosing): 26%
- durability of tumor response [10]: progressed under treatment
- predicted half-life (Predicted human PK): ~9 h
- in vivo levels of DUSP6 [11]: drop
- partial response according to RECIST [12]: −35%

Structure (SMILES): CNC[C@@H](NC(=O)c1ccc(-c2nc([C@H]3CC[C@H](O)[C@@H](F)C3)cnc2N)cc1F)c1cc(F)cc(Br)c1 [Compound B, 4-(3-amino-6-((1S,3S,4S)-3-fluoro-4-hydroxycyclohexyl)pyrazin-2-yl)-N-((S)-1-(3-bromo-5-fluorophenyl)-2-(methylamino)ethyl)-2-fluorobenzamide]
- pIC50 (Calu6 (KRAS^Q61K)): > 6.00
- pIC50 (HeyA8 (KRAS^G12D)): > 6.00
- pIC50 (AsPC-1 (KRAS^G12D)): > 6.00
- pIC50 (PSN1 (KRAS^G12R)): > 6.00
- regressions ([10]; Compound B 50 mg/kg qd, oral, 17 days post dosing): 22%
- T/C ([10]; Compound B 75 mg/kg q2d, oral, 17 days post dosing): 4%
- durability of tumor response [10]: progressed under treatment

Structure (SMILES): Cn1cnc2c(F)c(Nc3ccc(Br)cc3Cl)c(C(=O)NOCCO)cc21 [Selumetinib]
- pIC50 (A375 [2]): 7.44
- pIC50 (A375/BRAFp61-V600E): < 5.00
- pIC50 (A375/MEK1 Q56P): 5.27
- pIC50 (A375/MEK1 C121S): 5.63
- pIC50 (A375/MEK1 E203K): 5.74
- pIC50 (A375/MEK2 Q60P): 5.32
- pIC50 (A375/NRAS Q61K): 5.26

Structure (SMILES): CCCS(=O)(=O)Nc1ccc(F)c(C(=O)c2c[nH]c3ncc(-c4ccc(Cl)cc4)cc23)c1F [Vemurafenib]
- pIC50 (A375 [2]): 7.18
- pIC50 (A375/BRAFp61-V600E): 5.07
- pIC50 (A375/MEK1 Q56P): 5.02
- pIC50 (A375/MEK1 C121S): 5.06
- pIC50 (A375/MEK1 E203K): 5.25
- pIC50 (A375/MEK2 Q60P): 5.28
- pIC50 (A375/NRAS Q61K): 5.03
